Assay results published in article PMC10799709, “Characterization of a New Immunosuppressive and Antimicrobial Peptide, DRS-DA2, Isolated from the Mexican Frog, Pachymedusa dacnicolor” (International Journal of Inflammation, 2024).
In brackets after ≈: the same amount, converted by molar mass. Peptide text beside a SMILES is read from it.

Experiments:
[1] = test system: Gram-positive and Gram-negative strains; assay: Antibacterial properties on a series of strains; type: cell-based
Procedure: (§1) The minimum inhibitory concentration (MIC) was determined by a liquid test in 96-well microplates as previously described. 100 µL of the sample to be tested was distributed in triplicate to obtain a range of final concentrations from 100 to 0.2 µM in the wells. 90 µL of bacterial suspension (5 × 10^5 CFU/mL for Gram-negative bacteria and 5 × 10^5 CFU/mL for Gram-positive strains in Mueller–Hinton broth) were added to each well [14]. The microtiter plates were incubated at 37°C overnight. The optical density of the wells was measured at […], and the results were interpreted by calculating the percentage of growth in each well according to the formula: % growth = (OD600 well − OD600 T0)/(OD600 of T100 − OD600 T0) ∗ 100, where OD600 T100 = DO600 growth control (bacterial suspension without the test sample, 100% growth), OD600 T0 = OD600 of sterility control (culture medium + […] 10 µL formaldehyde, 0% growth) well, and OD600 = OD600 of the well which was desired to calculate the percentage of growth (+ bacterial suspension test sample). MIC is the minimum concentration of the peptide that inhibits bacterial growth after incubation at 37°C for 20 hours.
The minimum bactericidal concentration (MBC) is defined as the minimum concentration of the peptide killing 99.9% of bacteria after incubation at 37°C for 20 hours. […]

C57BL/6 mice = assay: Thioglycolate-induced peritoneal inflammation (noninfectious peritonitis); type: in vivo, mouse; conditions: thioglycolate 3% i.p., 15 µg/injection i.p. at 14, 19 and 24 h, flow cytometry
Procedure: C57BL/6 mice were injected intraperitoneally with 1 mL 3% (wt/vol) thioglycolate (Sigma-Aldrich, l'Ile d'Abeau, France) dissolved in sterile NaCl and then 14, 19, and 24 hours later injected i.p. with DRS-DA2N or DRS-DA2NEQ (15 µg/injection). NaCl was used as a negative control. Twelve hours after the last injection, mice were killed, and 3 mL of cold PBS was injected i.p. to harvest peritoneal cells, which were then stained with anti-mouse Ly6G-PE, anti-mouse NK1.1-PE, anti-mouse CD11b-PerCP, and anti-mouse F4/80-APC (BD Biosciences, Rungis, France). Blood and bone marrow were also collected and stained with the same antibodies. Cells and beads were then counted by FACSCalibur flow cytometry, and data were analyzed with FlowJo. Cells being CD11b^hiLy6G^−NK1.1^− are considered to be monocytes (Mo), CD11b^hiLy6G^−NK1.1^− F4/80^+ macrophages (MΦ), and CD11b^hiLy6G^+NK1.1^− neutrophils (PMN).

human leukocytes = assay: Cytotoxic assay on human leukocytes (viability dye, flow cytometry); type: cell-based; conditions: 2 h, various concentrations
Text: (§2) Human leukocytes were provided by the « Banco de Sangre del Hospital Regional del IMSS » and the Centro Estatal de la Transfusión Sanguínea in Cuernavaca, Morelos, Mexico. Institutional committees approved the acquisition and isolation of human peripheral blood leukocytes. Human leukocytes and erythrocytes were obtained as previously described. Mouse bone marrow cells (MBMCs) and erythrocytes were obtained from C57BL/6 or Balb/c mice. Mouse epithelial cells were isolated from C57Bl/6 mice, and human epithelial cells were recovered from surgery residues. In brief, intestinal tissues were minced and digested in 450-U/mL collagenase I, 125-U/mL collagenase XI, 60-U/mL hyaluronidase, and 60-U/mL DNAse for 1 hour before gradient density centrifugation on Histopaque-1083 (Sigma-Aldrich, St. Louis, MO). […]
(§3) 5.10^5 mouse or human leukocytes or primary epithelial cells, A549 or Jurkat E6-1 cells, were incubated in 100 µl RPMI or DMEM containing 0.5% BSA and […] with the peptides at different concentrations for 2 hours at 37°C, 5% CO2. […] Viability of leukocytes and Jurkat cells was determined by adding a viability dye (eFluor 780) and counted by FacsCanto flow cytometry with a predetermined number of beads (Polybead, Carboxylate Microspheres, Polysciences, Inc., Le Perray-en-Yvelines, France) added to the samples. […] Data were analyzed with FlowJo.

[2] = Circular dichroism, percentage of helicity; type: physicochemical; conditions: POPE: POPG (75 : 25) LUVs, peptide/lipid 1/50, 10 mM Tris pH 7.4
Procedure: The CD spectra of the peptides were recorded as previously described. Measurements were carried out in 10 mM Tris buffer at pH 7.4 and in the presence of POPC, POPG, and POPG-POPC (25 : 75) LUVs or POPG-POPE (25 : 75) LUVS to mimic E. coli inner membrane composition at a peptide/lipid molar ratio of 1/50. Dichroic spectra were corrected by subtracting the background obtained for each peptide-free solution. An analysis of CD spectra was conducted after smoothing, and conversion to molar ellipticity was calculated as follows: […], where θobs is the observed ellipticity, n is the number of bonds, c is the peptide concentration in mol. L^−1, and l is the path length in cm.

mouse leukocytes = assay: Cytotoxic assay on mouse leukocytes (viability dye, flow cytometry); type: cell-based; conditions: 2 h, various concentrations
Text: as §2, §3

Jurkat E6-1 cells = assay: Apoptosis/necrosis assay (annexin V / eFluor 780); type: cell-based; conditions: Jurkat E6-1, 5 µM, 2 hours
Procedure: Induction of apoptosis or necrosis by the peptides was tested by incubating 5.10^5 Jurkat E6-1 cells in 200 µl RPMI containing 10% FBS and […] with the peptides at 5 µM for 2 hours at 37°C, 5% CO2. A positive control was obtained by exposing the cells to UV light for 10 min (1 mJ/cm^2, Stratagene UV Stratalinker 2400), before incubating them for 4 hours at 37°C, 5% CO2, RPMI 10% FBS. Cells were then washed, centrifuged, resuspended, and incubated 30 min at 4°C in the dark with Viability dye 780 (BioLegend). After washing the cells, Annexin-V-FITC in annexin-binding buffer was added, and the cells were incubated for 15 minutes at room temperature in the dark. The cells were fixed with PFA at a final dilution of 2% before being analyzed by FACSCanto flow cytometry.

[3] = test system: S. aureus ATCC 700699 (MecA+); assay: Antibacterial activity on skin multiresistant bacteria; type: cell-based; conditions: Staphylococcus aureus, ATCC700699
Procedure: as §1

[4] = test system: S. epidermidis ST20140436 (MecA+); assay: as above; type: cell-based; conditions: Staphylococcus epidermidis
Procedure: as §1

[5] = test system: Acinetobacter johnsonii (carbapenemase); assay: as above; type: cell-based
Procedure: as §1

[6] = test system: Propionibacterium acnes (clinical isolate), second listed; assay: as above; type: cell-based; conditions: Cutibacterium acnes, second listed (r8)
Procedure: as §1

[7] = test system: Propionibacterium acnes (clinical isolate), first listed; assay: as above; type: cell-based; conditions: Cutibacterium acnes, first listed (r7)
Procedure: as §1

ANTS/DPX leakage assay = conditions: POPE/POPG (75 : 25) LUVs, 0.5 mM lipid, from Figure 10(c)
Procedure: The lipids 1-palmitoyl-2-oleoyl-sn-glycero-3-phospho-(1′-rac-glycerol) (POPG) and 1-palmitoyl-2-oleoyl-sn-glycero-3-phosphoethanolamine (POPE) were obtained from Avanti Polar Lipids, Inc., and used without further purification. Desired mixtures of phospholipids were first dried in glass tubes under nitrogen and then maintained under reduced pressure for at least 60 min. Lipid films were subsequently hydrated in PBS to yield a lipid concentration. The resulting dispersions were subjected to 5 freeze-thaw cycles by alternately placing the sample vial in a liquid nitrogen bath and a warm water bath (40°C). […]
The vesicles of POPE/POPG (75/25) at 25 mM concentration were obtained as previously described and suspended in a solution of 12.5 mM ANTS and 45 mM DPX in 10 mM HEPES. […] Final lipid concentration was measured by the method of Rouser.
To measure the leakage of DPX, the vesicles were diluted to a concentration of 0.5 mM lipid. […] ANTS fluorescence was monitored using a fluorimeter (excitation = 350 nm; emission = 530 nm) or a fluorescence plate reader (excitation filter wavelength/bandpass = 340/11; emission 530/25.
Fractional leakage was calculated as (Fsample − Finitial)/(Flysed−Finitial).

E. coli ATCC8739 = assay: Time-kill assay; type: cell-based; conditions: E. coli ATCC8739, peptide at its MIC concentration, 37°C, CFU counting
Procedure: Time-killing experiments were achieved according to [18, 19] with minor modifications. The peptide's concentration was 1 × MIC and 2 × MIC. At the time points of 15, 30, 45, and 60 min and after homogenization, suspensions were diluted in 10 mM sodium phosphate buffer (pH 6.8) and spread onto MH agar plates. After overnight incubation at room temperature, CFUs were counted.

Question: For `CSCC[C@H](NC(=O)[C@H](C)NC(=O)[C@H](C)NC(=O)[C@H](CCCCN)NC(=O)[C@@H](NC(=O)[C@H](CC(C)C)NC(=O)[C@@H](NC(=O)[C@H](CC(N)=O)NC(=O)CNC(=O)[C@@H](N)CCCCN)C(C)C)C(C)C)C(=O)N[C@@H](CC(C)C)C(=O)N[C@H](C(=O)N[C@@H](CCCCN)C(=O)N[C@H](C(=O)N[C@@H](CC(C)C)C(=O)N[C@@H](C)C(=O)N[C@@H](CCCCN)C(=O)N[C@@H](CC(N)=O)C(=O)N[C@@H](CCCCN)C(=O)NCC(=O)N[C@H](C(=O)N[C@@H](CCC(N)=O)C(=O)N[C@@H](CC(N)=O)C(=O)N[C@@H](C)C(=O)N[C@@H](CC(N)=O)C(=O)N[C@@H](C)C(=O)N[C@@H](CC(C)C)C(=O)N[C@H](C(=O)N[C@@H](Cc1c[nH]c2ccccc12)C(=O)O)[C@@H](C)O)C(C)C)C(C)C)[C@@H](C)O` [Scr] (H-KGNVLVKAAMLTKVLAKNKGVQNANALTW-OH; N-terminus and C-terminus assumed), which bacterial activity [1] is on record?
Answer: Its bacterial activity is “did not exhibit any bacterial activity”.

Question: And the “egress of inflammatory cells from the bone marrow and increase in blood after induction of peritonitis (systemic effect)” value (C57BL/6 mice)?
Answer: The value was “conserved”.

Question: What about the “induction of death of leukocyte populations” value (human leukocytes) of the same compound?
Answer: The value was “did not induce the death”.

Question: What about the “percentage of helicity (CD)” value [2] of the same compound?
Answer: The value was “remained unstructured”.

Question: And the “induction of death of leukocyte populations” value (mouse leukocytes)?
Answer: The value was “did not induce the death”.

Question: And the cell death (Jurkat E6-1 cells)?
Answer: The cell death was < 4%.

Question: What about the “cells alive (A−V−)” value (Jurkat E6-1 cells) of the same compound?
Answer: Its value is “more than 96%”.

Question: With `CC1(C)S[C@@H]2[C@H](NC(=O)[C@H](N)c3ccc(O)cc3)C(=O)N2[C@H]1C(=O)O` [amoxicillin] as the compound, how does the MIC [3] read?
Answer: Its MIC is > 43.8 µM.

Question: And the MIC [4]?
Answer: The MIC was > 43.8 µM.

Question: Which MIC [5] does the source give for `CC(C)(O/N=C(\C(=O)N[C@@H]1C(=O)N2C(C(=O)[O-])=C(C[n+]3ccccc3)CS[C@H]12)c1csc(N)n1)C(=O)O` [ceftazidime] here?
Answer: Its MIC is > 29.3 µM.

Question: Which results are given for `C[C@H]1c2cccc(O)c2C(=O)C2=C(O)[C@]3(O)C(=O)C(C(N)=O)=C(O)[C@@H](N(C)C)[C@@H]3[C@@H](O)[C@@H]21` [doxycycline]?
Answer: MIC [6]: 0.27 µM (≈ 0.12 µg/mL); MIC [7]: 0.13 µM (≈ 0.0578 µg/mL)

Question: Which results are given for omiganan?
Answer: LIC50 (peptide concentration required to induce 50% leakage) (ANTS/DPX leakage assay): No leakage; incubation time after which all the bacteria were killed (E. coli ATCC8739): needed a much longer time to be active
